Our source for the IC50 values is US11384055B2 (BIOMARIN PHARMACEUTICAL INC., priority 2017, dated 2022).

Where two headings read alike, the source gives them in different places.

One may read the IC50 as the point on the concentration scale where inhibition reaches its midpoint.

In the assay the target is T1, Human GO (Homo sapiens, UniProt Q9UJM8).
T1 construct: purchased Novus Biologicals NBP1-72412
T1 sequence (Q9UJM8 1-370): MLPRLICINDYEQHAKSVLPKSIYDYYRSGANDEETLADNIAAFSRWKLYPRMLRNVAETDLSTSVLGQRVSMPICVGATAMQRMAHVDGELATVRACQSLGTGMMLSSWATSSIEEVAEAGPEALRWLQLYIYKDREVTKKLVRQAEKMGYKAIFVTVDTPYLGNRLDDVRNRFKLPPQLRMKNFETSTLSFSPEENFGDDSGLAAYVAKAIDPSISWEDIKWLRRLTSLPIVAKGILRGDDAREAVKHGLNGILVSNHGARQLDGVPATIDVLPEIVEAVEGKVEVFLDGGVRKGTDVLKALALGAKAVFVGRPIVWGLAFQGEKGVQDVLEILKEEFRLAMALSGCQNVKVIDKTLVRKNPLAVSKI
The assay is described as follows: GO enzymatic assay (coupled fluorescence/HRP assay, glycolate substrate). In kind it is biochemical. Put shortly: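 Human GO incubated with glycolate substrate in 50 mM potassium phosphate, pH 7, with varying inhibitor concentrations. Activity read by coupled HRP fluorescence. IC50 taken from variable-slope sigmoidal dose-response fits of percent inhibition relative to DMSO control.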

The mark [1] stands for this setting: Table 1, read-out: Range (range of IC50 values calculated from the enzymatic assays).
[2] abbreviates: Table 2, read-out: Range (range of IC50 values calculated from the enzymatic assays).

Turning to `O=C(O)c1[nH]nnc1Nc1ccc(-c2ccc(OC(F)(F)F)c(Cl)c2)cc1` [Compound 155, 4-((3′-chloro-4′-(trifluoromethoxy)-[1,1′-biphenyl]-4-yl)amino)-1H-1,2,3-triazole-5-carboxylic acid], the IC50 under setting [1] is under 100 nM.

As to `O=C(O)c1[nH]nnc1Oc1ccc(-c2ccc(OC(F)(F)F)c(Cl)c2)cc1` [Compound 156, 4-((3′-chloro-4′-(trifluoromethoxy)-[1,1′-biphenyl]-4-yl)oxy)-1H-1,2,3-triazole-5-carboxylic acid], the IC50 under setting [1] is under 100 nM.

For `O=C(O)c1[nH]nnc1Oc1ccc(-c2cccc(C(=O)N3CCCCC3)c2)cc1` [Compound 157, 4-((3′-(piperidine-1-carbonyl)-[1,1′-biphenyl]-4-yl)oxy)-1H-1,2,3-triazole-5-carboxylic acid 2,2,2-trifluoroacetate], the IC50 under setting [1] was under 100 nM.

Take `O=C(O)c1[nH]nnc1COc1ccc2cc(Cl)ccc2c1` [Compound 158, 4-(((6-chloronaphthalen-2-yl)oxy)methyl)-1H-1,2,3-triazole-5-carboxylic acid 2,2,2-trifluoroacetate]: the IC50 under setting [1] was under 100 nM.

Regarding `O=C(O)c1[nH]nnc1Oc1ccc(-c2cccc(CN3CCCCC3)c2)cc1` [Compound 160, 4-((3′-(piperidin-1-ylmethyl)-[1,1′-biphenyl]-4-yl)oxy)-1H-1,2,3-triazole-5-carboxylic acid 2,2,2-trifluoroacetate], under setting [1], the IC50 was 100 to 1000 nM.

As for `O=C(O)c1[nH]nnc1Oc1ccc(-c2ccc(C(F)(F)F)cc2)cc1` [Compound 161, 4-((4′-(trifluoromethyl)-[1,1′-biphenyl]-4-yl)oxy)-1H-1,2,3-triazole-5-carboxylic acid], under setting [1], the IC50 was under 100 nM.

Consider `O=C(O)c1[nH]nnc1Oc1ccc(-c2cccc(OC3CCCC3)c2)cc1` [Compound 162, 4-((3′-(cyclopentyloxy)-[1,1′-biphenyl]-4-yl)oxy)-1H-1,2,3-triazole-5-carboxylic acid], for which the IC50 under setting [1] was under 100 nM.

For the molecule `O=C(O)c1[nH]nnc1Oc1ccc(-c2ccc(Cl)c(OC(F)(F)F)c2)cc1` [Compound 163, 4-((4′-chloro-3′-(trifluoromethoxy)-[1,1′-biphenyl]-4-yl)oxy)-1H-1,2,3-triazole-5-carboxylic acid], the IC50 under setting [1] is under 100 nM.

As for `O=C(O)c1[nH]nnc1Sc1ccc(-c2cccc(N3CCCCC3)c2)cc1` [Compound 164, 4-((3′-(piperidin-1-yl)-[1,1′-biphenyl]-4-yl)thio)-1H-1,2,3-triazole-5-carboxylic acid 2,2,2-trifluoroacetate], the IC50 under setting [1] is under 100 nM.

`O=C(O)c1[nH]nnc1Oc1ccc(-c2ccc(Cl)c(Cl)c2)cc1` [Compound 165, 4-((3′,4′-dichloro-[1,1′-biphenyl]-4-yl)oxy)-1H-1,2,3-triazole-5-carboxylic acid 2,2,2-trifluoroacetate] gave an IC50 of under 100 nM.

Consider `O=C(O)c1[nH]nnc1C(F)(F)c1ccc(Cl)c(Cl)c1` [Compound 166, 4-((3,4-dichlorophenyl)difluoromethyl)-1H-1,2,3-triazole-5-carboxylic acid], for which the IC50 under setting [1] is under 100 nM.

On to `O=C(O)c1[nH]nnc1OC1CCC(F)(F)CC1` [Compound 167, 4-((4,4-difluorocyclohexyl)oxy)-1H-1,2,3-triazole-5-carboxylic acid 2,2,2-trifluoroacetate], for which, under setting [1], the IC50 was under 100 nM.

Consider `O=C(O)c1[nH]nnc1OC1CC2CCC1C2` (centres unmarked) [Compound 168, 4-(bicyclo[2.2.1]heptan-2-yloxy)-1H-1,2,3-triazole-5-carboxylic acid], for which the IC50 under setting [1] is under 100 nM.

With `O=C(O)c1[nH]nnc1Sc1ccc(-c2ccc(N3CCCCC3)cc2)cc1` [Compound 169, 4-((4′-(piperidin-1-yl)-[1,1′-biphenyl]-4-yl)thio)-1H-1,2,3 triazole-5-carboxylic acid 2,2,2-trifluoroacetate], under setting [2], the IC50 is under 100 nM.

For `O=C(O)c1[nH]nnc1Sc1ccc(-c2cccc(OCC3CC3)c2)cc1` [Compound 170, 4-((3′-(cyclopropylmethoxy)-[1,1′-biphenyl]-4-yl)thio)-1H-1,2,3-triazole-5-carboxylic acid 2,2,2-trifluoroacetate], under setting [2], the IC50 was under 100 nM.

`O=C(O)c1[nH]nnc1CSc1ccc2cc(Cl)ccc2c1` [Compound 171, 4-(((6-chloronaphthalen-2-yl)thio)methyl)-1H-1,2,3-triazole-5-carboxylic acid 2,2,2-trifluoroacetate]: the IC50 under setting [2] was under 100 nM.

On to `O=C(O)c1[nH]nnc1SC1CCc2cc(F)c(F)cc2C1` (centres unmarked) [Compound 172, 4-((6,7-difluoro-1,2,3,4-tetrahydronaphthalen-2-yl)thio)-1H-1,2,3-triazole-5-carboxylic acid], for which the IC50 under setting [2] is under 100 nM.

As to `O=C(O)c1[nH]nnc1SC1Cc2cc(F)c(F)cc2C1` [Compound 173, 4-((5,6-difluoro-2,3-dihydro-1H-inden-2-yl)thio)-1H-1,2,3-triazole-5-carboxylic acid], under setting [2], the IC50 was under 100 nM.

Turning to `O=C(O)c1[nH]nnc1SCc1ccc2cc(Cl)ccc2c1` [Compound 174, 4-(((6-chloronaphthalen-2-yl)methyl)thio)-1H-1,2,3-triazole-5-carboxylic acid 2,2,2-trifluoroacetate], under setting [2], the IC50 is under 100 nM.

On to `CN1CCCc2cc(-c3ccc(Sc4nn[nH]c4C(=O)O)cc3)ccc21` [Compound 175, 4-((4-(1-methyl-1,2,3,4-tetrahydroquinolin-6-yl)phenyl)thio)-1H-1,2,3-triazole-5-carboxylic acid 2,2,2-trifluoroacetate], for which, under setting [2], the IC50 was under 100 nM.

With `O=C(O)c1[nH]nnc1SCc1ccc(Cl)c(Cl)c1` [Compound 176, 4-((3,4-dichlorobenzyl)thio)-1H-1,2,3-triazole-5-carboxylic acid], under setting [2], the 50% inhibitory concentration (IC50) is under 100 nM.

Turning to `O=C(O)c1[nH]nnc1SCc1ccc(-c2ccc(OC(F)(F)F)cc2)cc1` [Compound 177], the IC50 under setting [2] was under 100 nM.

For `O=C(O)c1[nH]nnc1CNc1ccc2cc(Cl)ccc2c1` [Compound 178, 4-(((6-chloronaphthalen-2-yl)amino)methyl)-1H-1,2,3-triazole-5-carboxylic acid 2,2,2-trifluoroacetate], the IC50 under setting [2] is under 100 nM.

For the molecule `CN(Cc1nn[nH]c1C(=O)O)c1ccc(Cl)c(Cl)c1` [Compound 179, 4-(((3,4-dichlorophenyl)(methyl)amino)methyl)-1H-1,2,3-triazole-5-carboxylic acid 2,2,2-trifluoroacetate], the IC50 under setting [2] is under 100 nM.

In the case of `CN(Cc1nn[nH]c1C(=O)O)c1ccc2cc(Cl)ccc2c1` [Compound 180, 4-(((6-chloronaphthalen-2-yl)(methyl)amino)methyl)-1H-1,2,3-triazole-5-carboxylic acid 2,2,2-trifluoroacetate], the IC50 under setting [2] was under 100 nM.

In the case of `O=C(O)c1[nH]nnc1Nc1ccc(-c2ccc(Cl)cc2)c(Cl)c1` [Compound 181, 4-((2,4′-dichloro-[1,1′-biphenyl]-4-yl)amino)-1H-1,2,3-triazole-5-carboxylic acid], under setting [2], the IC50 was under 100 nM.

Regarding `O=C(O)c1[nH]nnc1NCc1ccc2cc(Cl)ccc2c1` [Compound 182, 4-(((6-chloronaphthalen-2-yl)methyl)amino)-1H-1,2,3-triazole-5-carboxylic acid], under setting [2], the IC50 is 100 to 1000 nM.

`O=C(O)c1[nH]nnc1Nc1ccc(-c2ccc(C(F)(F)F)cc2)cc1` [Compound 183, 4-((4′-(trifluoromethyl)-[1,1′-biphenyl]-4-yl)amino)-1H-1,2,3-triazole-5-carboxylic acid]: under setting [2], the IC50 is under 100 nM.

On to `CCN(Cc1nn[nH]c1C(=O)O)c1ccc(Cl)c(Cl)c1` [Compound 185, 4-(((3,4-dichlorophenyl)(ethyl)amino)methyl)-1H-1,2,3-triazole-5-carboxylic acid], for which the IC50 under setting [2] was 100 to 1000 nM.

For `O=C(O)c1[nH]nnc1Nc1cnc2cc(Cl)ccc2c1` [Compound 186, 4-((7-chloroquinolin-3-yl)amino)-1H-1,2,3-triazole-5-carboxylic acid], under setting [2], the IC50 is 1000 to 10000 nM.

As for `CCN(Cc1nn[nH]c1C(=O)O)c1ccc2cc(Cl)ccc2c1` [Compound 187, 4-(((6-chloronaphthalen-2-yl)(ethyl)amino)methyl)-1H-1,2,3-triazole-5-carboxylic acid], under setting [2], the IC50 was 100 to 1000 nM.

Turning to `O=C(O)c1[nH]nnc1CN1CCCc2cc(Cl)ccc21` [Compound 188, 4-((6-chloro-3,4-dihydroquinolin-1(211)-yl)methyl)-1H-1,2,3-triazole-5-carboxylic acid], the IC50 under setting [2] is 1000 to 10000 nM.

Consider `CCN(Cc1nn[nH]c1C(=O)O)c1ccc(-c2ccc(OC(F)(F)F)cc2)cc1` [Compound 189, 4-((ethyl(4′-(trifluoromethoxy)-[1,1′-biphenyl]-4-yl)amino)methyl)-1H-1,2,3-triazole-5-carboxylic acid 2,2,2-trifluoroacetate], for which the concentration for half-maximal inhibition (IC50) under setting [2] was 100 to 1000 nM.

`O=C(O)c1[nH]nnc1NC1Cc2cc(Cl)c(Cl)cc2C1` [Compound 190, 4-((5,6-dichloro-2,3-dihydro-1H-inden-2-yl)amino)-1H-1,2,3-triazole-5-carboxylic acid 2,2,2-trifluoroacetate]: the concentration for half-maximal inhibition (IC50) under setting [2] is 100 to 1000 nM.

In the case of `O=C(O)c1[nH]nnc1CN(Cc1ccccc1)c1ccc(C2CCCCC2)cc1` [Compound 194, 4-((benzyl(4-cyclohexylphenyl)amino)methyl)-1H-1,2,3-triazole-5-carboxylic acid], the IC50 under setting [2] was 1000 to 10000 nM.
